Test results published in patent US20250084079A1, “COMPOSITIONS AND METHODS FOR INHIBITION OF RAS” (TheRas, Inc., priority 2022, published 2025).
Where two headings read alike, the source gives them in different places.

Columns and labels:
[1] = biological target: T1, Avi-KRAS G12D (1-169) GppNHp/RAF1 RBD-3xFLAG (52-151) (Homo sapiens, UniProt P01116, G12D); experiment: RAS-effector PPI HTRF disruption assay, Raf1-GppNHp-KRAS G12D; assay type: biochemical
T1 construct: 100 nM Avi-KRAS G12D (1-169) GppNHp
Procedure: (§1) A protein:protein interaction (PPI) Homogeneous Time Resolved Fluorescence (HTRF) assay was used to determine the effectiveness of compounds of the present disclosure in disrupting KRAS protein and effector (RAF1 or PIK3 CA) binding.
(§2) The HTRF assay used the following reagents and proteins: (i) 375 nM Avi-KRAS G12D/Q25A (1-169) GppNHp/3×FLAG-PI3KCA (157-299); (ii) 100 nM Avi-KRAS G12D (1-169) GppNHp/RAF1 RBD-3×FLAG (52-151); (iii) 50 nM Avi-KRAS G12V (1-169) GppNHp/RAF1 RBD-3×FLAG (52-151); (iv) 50 nM Avi-KRAS WT (1-169) GppNHp/RAF1 RBD-3×FLAG (52-151); and (v) 35 nM Avi-PI3K RBD CA-3×FLAG; Assay Buffer: 50 mM Tris pH 7.5, 100 mM NaCl, 5 mM MgCl2, 0.1% BSA, 0.01% Tween, 1 mM TCEP, 10% DMSO; Bead Buffer: 50 mM Tris pH 7.5, 0.01% Tween 20; Assay volume: 20 μL (384 well plate-low volume format); and Compound titration: 100-0.02 μM, 3× dilution series.
(§3) The HTRF assay employed the following protocol:
(§4) Compounds were dispensed in assay plate (384-well, Grenier Bione #784075) using Echo (model 555) with dose response settings: 200 nL final volume, titration from 100 μM as a 10-point dilution series. Protein mix was prepared in assay buffer, and dispensed on plates, 10 μL per well, then incubated for 1 h at room temperature, with 700 rpm shaking. Reagents mix was prepared and dispensed on plates, 10 μL per well, then incubated for 1 h at room temperature, with 700 rpm shaking.
(§5) Plates were analyzed on an Envision plate reader using the following setting: Excitation 320 nm, Bandwidth […]; Emission 615 nm, Bandwidth […], Gain 100%, Flashes 100, Lag 60 μs. Data was reported as percentage of activity, with DMSO as 100%. Data was plotted and analyzed using Prism 8. The SPR Kd, biochemical Raf1-KRAS G12D/G12V/WT-GppNHP and PI3KCA-KRAS G12D/Q25A-GppNHp disruption assay IC50 of selected compounds described herein are shown in Table 4.

[2] = biological target: T2, Avi-KRAS G12V (1-169) GppNHp/RAF1 RBD-3xFLAG (52-151) (Homo sapiens, UniProt P01116, G12V); experiment: RAS-effector PPI HTRF disruption assay, Raf1-GppNHp-KRAS G12V; assay type: biochemical
T2 construct: 50 nM Avi-KRAS G12V (1-169) GppNHp
Procedure: as §1, §2, §3, §4, §5

[3] = test system: pERK in GP2d cells (KRAS G12D); experiment: Cell-based pERK HTRF assay in GP2d cell; details: 60 min incubation
Procedure: A pERK assay (Perkin Elmer) was used to determine the effectiveness of compounds in disrupting KRAS G12D protein/effector signaling in cells.
On Day 1, cells (GP2d) were seeded into 96-well plates at 3×10^4 cells/well in 80 μL complete growth media (DMEM, 10% FBS).
On Day 2, cells were treated with compounds at 0.25% DMSO. The source plate was created with compounds diluted in media at 5-fold the final assay concentration. The compounds were run in a 9-point concentration curve starting at 1 μM, with a half-log dilution between concentrations. 20 μL was transferred onto the cell plates (final volume in wells was 100 μL). Plates were harvested after 60 min incubation by aspirating media and adding kit-supplied 1× supplemented lysis buffer to all wells (50 μL per well). Plates were then placed on a plate shaker and incubated at 850 rpm for an additional 30 min.
Antibody mixture solution is prepared by diluting aliquoted d2 and Eu Cryptate antibodies 1:20 in kit supplied detection buffer, mix the diluted antibodies solutions (1:1 v:v). 4 μL of this solution is then added to a 384-well detection plate (Perkin Elmer; 6008230).
Samples were homogenized by pipetting up and down and then transferred (16 μL of cell lysates) from the 96-well cell culture plate to two wells of the HTRF 384-well detection plate containing the antibody solution. Plates were centrifuged (524 g for 1 min) and allowed to incubate between 4 and 24 h at room temperature. Maximum signal is reached after 4 h incubation time and remains stable over a period of 24 hours. Therefore, readings can be made between 4 and 24 h of incubation. Plates were centrifuged again (524 g for Imin), then analyzed on the EnVision plate reader using the following settings: Excitation 320 nm, Bandwidth 75 nm; Emission 615 nm, Bandwidth 85 nm; Gain 100%; Flashes 100; Lag 60 μs.

[4] = biological target: T3, Avi-KRAS G12D/Q25A (1-169) GppNHp/3xFLAG-PI3KCA (157-299) (Homo sapiens, UniProt P01116, G12D/Q25A); experiment: RAS-effector PPI HTRF disruption assay, PI3KCA-GppNHp-KRAS G12D/Q25A; assay type: biochemical
T3 construct: 375 nM Avi-KRAS G12D/Q25A (1-169) GppNHp
Procedure: as §1, §2, §3, §4, §5

[5] = biological target: T4, Avi-KRAS WT (1-169) GppNHp/RAF1 RBD-3xFLAG (52-151) (Homo sapiens, UniProt P01116); experiment: RAS-effector PPI HTRF disruption assay, Raf1-GppNHp-KRAS WT; assay type: biochemical
T4 construct: 50 nM Avi-KRAS WT (1-169) GppNHp
Procedure: as §1, §2, §3, §4, §5

T2 sequence (P01116 1-169 isoform P01116-2 G12V): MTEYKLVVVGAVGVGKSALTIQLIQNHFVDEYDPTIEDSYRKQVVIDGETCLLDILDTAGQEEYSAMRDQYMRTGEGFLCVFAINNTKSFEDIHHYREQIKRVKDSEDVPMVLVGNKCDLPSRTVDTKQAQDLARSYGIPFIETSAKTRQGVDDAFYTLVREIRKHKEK
T4 sequence (P01116 1-169 isoform P01116-2): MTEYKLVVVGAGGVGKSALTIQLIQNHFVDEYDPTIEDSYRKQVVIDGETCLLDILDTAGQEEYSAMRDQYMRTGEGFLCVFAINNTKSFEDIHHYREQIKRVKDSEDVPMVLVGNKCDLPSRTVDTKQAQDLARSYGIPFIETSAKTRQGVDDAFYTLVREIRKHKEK
T3 sequence (P01116 1-169 isoform P01116-2 G12D/Q25A): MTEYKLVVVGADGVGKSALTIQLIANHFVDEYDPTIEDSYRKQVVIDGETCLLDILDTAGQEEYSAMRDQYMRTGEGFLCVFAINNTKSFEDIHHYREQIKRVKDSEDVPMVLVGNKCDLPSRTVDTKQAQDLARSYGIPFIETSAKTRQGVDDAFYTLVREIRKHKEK
T1 sequence (P01116 1-169 isoform P01116-2 G12D): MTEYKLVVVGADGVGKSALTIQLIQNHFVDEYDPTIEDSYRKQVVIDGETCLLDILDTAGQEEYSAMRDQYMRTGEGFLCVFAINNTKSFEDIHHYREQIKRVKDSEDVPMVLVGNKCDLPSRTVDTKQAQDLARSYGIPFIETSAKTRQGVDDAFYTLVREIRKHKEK

SMILES	IC50 [1]	IC50 [2]	IC50 ([3]; read-out: pERK-Gp2D-1 hr)	IC50 [4]	IC50 [5]	IC50 ([3]; GP2d, 1 h)
N#Cc1c(N)sc2c(F)ccc(-c3c(Cl)cc4c(O[C@H]5CCN[C@@H]5CO)nc(OC[C@@]56CCCN5C[C@H](F)C6)nc4c3F)c12 (atropisomer, axis not shown) [Compound 76]	≤ 100 nM	≤ 0.1 µM	≤ 100 nM	≤ 0.1 µM	≤ 0.1 µM	
C[C@H]1NCC[C@H]1Oc1nc(OC[C@@]23CCCN2C[C@H](F)C3)nc2c(F)c(-c3ccc(F)c4sc(N)c(C#N)c34)c(C(F)(F)F)cc12 (single isomer, unassigned) [Compound 73]	≤ 100 nM	≤ 0.1 µM	≤ 100 nM	≤ 0.1 µM	≤ 0.1 µM	
C[C@H]1NCC[C@H]1Oc1nc(OC[C@@]23CCCN2C[C@H](F)C3)nc2c(F)c(-c3ccc(F)c4sc(N)c(C#N)c34)c(C(F)(F)F)cc12 (single isomer, unassigned) [Compound 74]	> 10000 nM	> 10 µM	> 1000 nM	> 10 µM	> 10 µM	
C[C@H]1CNCC1Oc1nc(OC[C@@]23CCCN2C[C@H](F)C3)nc2c(F)c(-c3ccc(F)c4scnc34)c(C(F)(F)F)cc12 (stereo partly shown) [Compound 12]	> 10000 nM	> 10 µM		> 10 µM	> 10 µM	> 1000 nM
Nc1nc2c(-c3c(C(F)(F)F)cc4c(O[C@H]5CCNC5)nc(OC[C@@]56CCCN5C[C@H](F)C6)nc4c3F)ccc(F)c2s1 [Compound 13]	100 to 1000 nM	1 to 10 µM		1 to 10 µM	0.1 to 1 µM	≤ 100 nM
C[C@@H]1CNCC1Oc1nc(OC[C@@]23CCCN2C[C@H](F)C3)nc2c(F)c(-c3ccc(F)c4scnc34)c(C(F)(F)F)cc12 (stereo partly shown) [Compound 14]	> 10000 nM	> 10 µM		> 10 µM	> 10 µM	> 1000 nM
C[C@@H]1CNCC1Oc1nc(OC[C@@]23CCCN2C[C@H](F)C3)nc2c(F)c(-c3ccc(F)c4sc(N)nc34)c(C(F)(F)F)cc12 (stereo partly shown) [Compound 15]	100 to 1000 nM	1 to 10 µM		1 to 10 µM	1 to 10 µM	100 to 1000 nM
C[C@@H]1CNCC1Oc1nc(OC[C@@]23CCCN2C[C@H](F)C3)nc2c(F)c(-c3ccc(F)c4sc(N)nc34)c(C(F)(F)F)cc12 (stereo partly shown) [Compound 16]	1000 to 10000 nM	1 to 10 µM	100 to 1000 nM	1 to 10 µM	1 to 10 µM	
C[C@H]1NCC[C@H]1Oc1nc(OC[C@@]23CCCN2C[C@H](F)C3)nc2c(F)c(-c3ccc(F)c4scnc34)c(C(F)(F)F)cc12 [Compound 23]	> 10000 nM	> 10 µM		> 10 µM	> 10 µM	> 1000 nM
Nc1nc2c(-c3ncc4c(O[C@@H]5CCNC5)nc(OC[C@@]56CCCN5C[C@H](F)C6)nc4c3F)ccc(F)c2s1 [Compound 24, 7-fluoro-4-(8-fluoro-2-(((2R,7aS)-2-fluorotetrahydro-1H-pyrrolizin-7a(5H)-yl)methoxy)-4-(((R)-pyrrolidin-3-yl)oxy)pyrido[4,3-d]pyrimidin-7-yl)benzo[d]thiazol-2-amine]	> 10000 nM	> 10 µM		> 10 µM	> 10 µM	> 1000 nM
C[C@H]1NCC[C@H]1Oc1nc(OCC23CCCN2C[C@H](F)C3)nc2c(F)c(-c3ccc(F)c4sc(N)nc34)c(C(F)(F)F)cc12 (stereo partly shown) [Compound 25]	100 to 1000 nM	1 to 10 µM		0.1 to 1 µM	0.1 to 1 µM	≤ 100 nM
CC1(C)NCC[C@H]1Oc1nc(OC[C@@]23CCCN2C[C@H](F)C3)nc2c(F)c(-c3ccc(F)c4sc(N)nc34)c(C(F)(F)F)cc12 [Compound 27]	100 to 1000 nM	1 to 10 µM		> 10 µM	1 to 10 µM	100 to 1000 nM
Nc1nc2c(-c3c(C(F)(F)F)cc4c(O[C@H]5CNCC5(F)F)nc(OC[C@@]56CCCN5C[C@H](F)C6)nc4c3F)ccc(F)c2s1 [Compound 28]	1000 to 10000 nM	> 10 µM	100 to 1000 nM	> 10 µM	1 to 10 µM	
Nc1nc2c(-c3cc4nc(OC[C@@]56CCCN5C[C@H](F)C6)nc(O[C@H]5CNC[C@@H]5F)c4cc3C(F)(F)F)ccc(F)c2s1 [Compound 30]	1000 to 10000 nM	> 10 µM		> 10 µM	> 10 µM	> 1000 nM
Nc1nc2c(-c3cc4nc(OC[C@@]56CCCN5C[C@H](F)C6)nc(O[C@H]5CNC[C@H]5F)c4cc3C(F)(F)F)ccc(F)c2s1 [Compound 31]	1000 to 10000 nM	> 10 µM		> 10 µM	> 10 µM	> 1000 nM
Nc1nc2c(-c3ncc4c(O[C@@H]5CCNC5)nc(OC[C@@]56CCCN5C[C@H](F)C6)nc4c3F)c(F)cc(F)c2s1 [Compound 32]	> 10000 nM	> 10 µM		> 10 µM	> 10 µM	> 1000 nM
Nc1nc2c(-c3c(C(F)(F)F)cc4c(O[C@H]5CNC[C@@H]5F)nc(OC[C@@]56CCCN5C[C@H](F)C6)nc4c3Cl)ccc(F)c2s1 [Compound 33]	1000 to 10000 nM	> 10 µM		1 to 10 µM	1 to 10 µM	100 to 1000 nM
